Assay results: publication PMC6857582, “Characterization of aminopeptidase encoding gene anp-1 and its association with development in Caenorhabditis elegans” (PeerJ, 2019)

Key:
[1] = biological target: T1, rANP-1 (AlaNyl aminopeptidase 1) (Caenorhabditis elegans, UniProt Q22317); test: L-Leu-pNA hydrolysis, absorbance at […] nm; format: biochemical; conditions: inhibitor concentration not given; pre-incubation with inhibitor; substrate L-Leu-pNA; refolded fragment
T1 construct: gene anp-1
T1 sequence (Q22317 93-559): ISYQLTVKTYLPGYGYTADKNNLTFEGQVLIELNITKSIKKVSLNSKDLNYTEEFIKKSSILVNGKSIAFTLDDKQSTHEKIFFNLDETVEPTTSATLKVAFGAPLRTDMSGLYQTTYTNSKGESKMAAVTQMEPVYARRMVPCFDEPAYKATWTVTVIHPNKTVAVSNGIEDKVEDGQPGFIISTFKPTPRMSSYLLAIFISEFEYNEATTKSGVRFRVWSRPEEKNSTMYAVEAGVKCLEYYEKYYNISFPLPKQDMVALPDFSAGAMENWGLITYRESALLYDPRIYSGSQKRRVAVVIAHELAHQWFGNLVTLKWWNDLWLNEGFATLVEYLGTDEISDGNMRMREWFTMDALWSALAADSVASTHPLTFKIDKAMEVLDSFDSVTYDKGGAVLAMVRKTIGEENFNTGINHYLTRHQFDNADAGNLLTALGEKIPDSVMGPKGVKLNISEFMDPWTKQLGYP

[2] = biological target: T1, rANP-1 (AlaNyl aminopeptidase 1); test: p-nitroanilide release, absorbance at […] nm; format: biochemical; conditions: refolded fragment

Row | Structure (SMILES) | % reduction of activity [1] | p-nitroanilide release, absorbance at 405 nm [2]
1 | CC(C)C[C@@H](N)[C@H](O)C(=O)N[C@H](C(=O)N[C@H](C(=O)N[C@@H](CC(=O)O)C(=O)O)C(C)C)C(C)C [amastatin] | ~ 55% | 
2 | CC(C)C[C@H](N)C(=O)Nc1ccc([N+](=O)[O-])cc1 [L-leucine-p-nitroanilide] |  | Aminopeptidase activity of rANP-1 protein was measured using L-Leu-pNA as substrate
3 | CC(C)C[C@H](NC(=O)[C@@H](O)[C@H](N)Cc1ccccc1)C(=O)O [bestatin] | ~ 46% | 
